The results in this text go back to ChEMBL document CHEMBL1795292, “Discovery of molecules for the treatment of neuropathic pain: synthesis, antiallodynic and antihyperalgesic activities of 5-(4-nitrophenyl)furoic-2-acid hydrazones” (2011).

Each structure is given as a SMILES string. The source made the active and inactive calls. No cut-off for these calls is given here.

Assay [1] relates to Rattus norvegicus. Nature of the assay: Antiallodynic activity in Wistar albino rat chronic constriction injury-induced neuropathic pain model assessed as reversal of spontaneous pain response after 0.5 hrs at 100 mg/kg, ip. It is filed as functional, organism-based. The arrangement: dose 100 mg/kg.
Assay [2] concerns Rattus norvegicus. In words: Antiallodynic activity in Wistar albino rat chronic constriction injury-induced neuropathic pain model assessed as attenuation of cold allodynia measured as paw withdrawal duration at 100 mg/kg, ip. Particulars: route intraperitoneal. It is filed as functional.
The test system of assay [3] is Rattus norvegicus. Nature of the assay: Antihyperalgesic activity in Wistar albino rat chronic constriction injury-induced neuropathic pain model assessed as attenuation of mechanical pinkprick-induced hyperalgesia after 1.5 at 100 mg/kg, ip. It is filed as functional, organism-based. On the set-up: dose 100 mg/kg.
Assay [4] relates to Rattus norvegicus. Nature of the assay: Antiallodynic activity in Wistar albino rat chronic constriction injury-induced neuropathic pain model assessed as reversal of spontaneous pain response measured as withdrawal duration at 100 mg/kg, ip. To be noted: route intraperitoneal. It is filed as functional.
Assay [5] concerns Rattus norvegicus. Nature of the assay: Antiallodynic activity in Wistar albino rat chronic constriction injury-induced neuropathic pain model assessed as attenuation of mechanical allodynia measured as paw withdrawal latency at 100 mg/kg, ip. The format is functional. Particulars: route intraperitoneal.
The subject of assay [6] is Rattus norvegicus. In words: Antiallodynic activity in Wistar albino rat chronic constriction injury-induced neuropathic pain model assessed as reversal of spontaneous pain response up to 2 hrs at 100 mg/kg, ip. On the set-up: dose 100 mg/kg. It is filed as functional, organism-based.
For assay [7], the system named is Rattus norvegicus. Nature of the assay: Antiallodynic activity in Wistar albino rat chronic constriction injury-induced neuropathic pain model assessed as attenuation of mechanical allodynia after 0.5 hrs at 100 mg/kg, ip. The format is functional, organism-based. The arrangement: dose 100 mg/kg.
The subject of assay [8] is Rattus norvegicus. In words: Antihyperalgesic activity in Wistar albino rat chronic constriction injury-induced neuropathic pain model assessed as attenuation of mechanical pinkprick-induced hyperalgesia up to 2.5 at 100 mg/kg, ip. It is filed as functional, organism-based. The arrangement: dose 100 mg/kg.
In assay [9] the test system is Rattus norvegicus. Nature of the assay: Antiallodynic activity in Wistar albino rat chronic constriction injury-induced neuropathic pain model assessed as reversal of spontaneous pain response at 100 mg/kg, ip relative to gabapentin. To be noted: route intraperitoneal. It is filed as functional.
The test system of assay [10] is Rattus norvegicus. Nature of the assay: Antiallodynic activity in Wistar albino rat chronic constriction injury-induced neuropathic pain model assessed as attenuation of mechanical allodynia at 100 mg/kg, ip. The format is functional, organism-based. On the set-up: dose 100 mg/kg.
The subject of assay [11] is Rattus norvegicus. Nature of the assay: Antiallodynic activity in Wistar albino rat chronic constriction injury-induced neuropathic pain model assessed as reversal of spontaneous pain response at 100 mg/kg, ip. It is filed as functional, organism-based. The arrangement: dose 100 mg/kg.
Assay [12] deals with Rattus norvegicus. In words: Antiallodynic activity in Wistar albino rat chronic constriction injury-induced neuropathic pain model assessed as attenuation of cold allodynia at 100 mg/kg, ip. The format is functional, organism-based. The arrangement: dose 100 mg/kg.
Assay [13] deals with Rattus norvegicus. Nature of the assay: Antiallodynic activity in Wistar albino rat chronic constriction injury-induced neuropathic pain model assessed as reversal of spontaneous pain response after 1 hrs at 100 mg/kg, ip. It is filed as functional, organism-based. The arrangement: dose 100 mg/kg.
The subject of assay [14] is Rattus norvegicus. Nature of the assay: Antiallodynic activity in Wistar albino rat chronic constriction injury-induced neuropathic pain model assessed as attenuation of cold allodynia at 100 mg/kg, ip relative to carbamazepine and lamotrigine. Particulars: route intraperitoneal. It is filed as functional.
Assay [15] has as its system Rattus norvegicus. Nature of the assay: Antiallodynic activity in Wistar albino rat chronic constriction injury-induced neuropathic pain model assessed as attenuation of mechanical allodynia after 1.5 hrs at 100 mg/kg, ip. The arrangement: dose 100 mg/kg. It is filed as functional, organism-based.
The test system of assay [16] is Rattus norvegicus. In words: Antiallodynic activity in Wistar albino rat chronic constriction injury-induced neuropathic pain model assessed as attenuation of cold allodynia after 1 to 2.5 hrs at 100 mg/kg, ip. The format is functional, organism-based. On the set-up: dose 100 mg/kg.
Assay [17] has as its system Rattus norvegicus. Nature of the assay: Antihyperalgesic activity in Wistar albino rat chronic constriction injury-induced neuropathic pain model assessed as attenuation of mechanical pinkprick-induced hyperalgesia after 0.5 to 1 at 100 mg/kg, ip. The arrangement: dose 100 mg/kg. It is filed as functional, organism-based.
Assay [18] deals with Rattus norvegicus. In words: Antihyperalgesic activity in Wistar albino rat chronic constriction injury-induced neuropathic pain model assessed as attenuation of mechanical pinkprick-induced hyperalgesia after 0.5 to 1.5 at 100 mg/kg, ip. The format is functional, organism-based. On the set-up: dose 100 mg/kg.
The subject of assay [19] is Rattus norvegicus. In words: Antiallodynic activity in Wistar albino rat chronic constriction injury-induced neuropathic pain model assessed as attenuation of cold allodynia after 0.5 to 1 hr at 100 mg/kg, ip. It is filed as functional, organism-based. The arrangement: dose 100 mg/kg.
Assay [20] deals with Rattus norvegicus. Nature of the assay: Antiallodynic activity in Wistar albino rat chronic constriction injury-induced neuropathic pain model assessed as reversal of spontaneous pain response up to 1 hr at 100 mg/kg, ip. It is filed as functional, organism-based. On the set-up: dose 100 mg/kg.

As for `O=C(N/N=C/c1ccccc1)c1ccc(-c2ccc([N+](=O)[O-])cc2)o1`, the outcome in the assay on Rattus norvegicus [1] was Active. Also, the Time is 2.5 h with Rattus norvegicus [2], 2.5 h in the assay with Rattus norvegicus [4] and 2 h with Rattus norvegicus [5]. Moreover, in the assay with Rattus norvegicus [3], the outcome was inactive.

As for `Nc1nnc(-c2cccc(Cl)c2Cl)c(N)n1`, the outcome in the assay on Rattus norvegicus [6] and in the assay on Rattus norvegicus [7] was Active.

With `COc1ccc(/C=N/NC(=O)c2ccc(-c3ccc([N+](=O)[O-])cc3)o2)cc1`, the result in the assay with Rattus norvegicus [1] and in the assay on Rattus norvegicus [8] was Active. Further, the Time in the assay with Rattus norvegicus [2] and with Rattus norvegicus [4] was 2.5 h throughout. The “fold change (FC)” value in the assay with Rattus norvegicus [9] amounted to 5. Moreover, the result in the assay with Rattus norvegicus [10] was inactive.

As for `Cc1ccc(/C=N/NC(=O)c2ccc(-c3ccc([N+](=O)[O-])cc3)o2)cc1`, the result with Rattus norvegicus [3] was Active. Further, the outcome with Rattus norvegicus [11], in the assay with Rattus norvegicus [12] and in the assay on Rattus norvegicus [10] was inactive.

Turning to `C/C(=N\NC(=O)c1ccc(-c2ccc([N+](=O)[O-])cc2)o1)c1ccc(Br)cc1`, the Time with Rattus norvegicus [2] and with Rattus norvegicus [5] was 2.5 h each time. Moreover, the outcome with Rattus norvegicus [3] and with Rattus norvegicus [11] was inactive. For the same compound, the result in the assay on Rattus norvegicus [7] was Active.

Take `O=C(N/N=C/c1ccc([N+](=O)[O-])o1)c1ccc(-c2ccc([N+](=O)[O-])cc2)o1`: the result in the assay with Rattus norvegicus [1] and in the assay on Rattus norvegicus [3] was Active. Moreover, the Time with Rattus norvegicus [2], with Rattus norvegicus [4] and in the assay with Rattus norvegicus [5] was 2.5 h throughout.

On to `C/C(=N\NC(=O)c1ccc(-c2ccc([N+](=O)[O-])cc2)o1)c1ccc(F)cc1`, for which the outcome in the assay on Rattus norvegicus [3], in the assay on Rattus norvegicus [11], in the assay on Rattus norvegicus [12] and in the assay on Rattus norvegicus [10] was inactive.

With `O=C(N/N=C/c1ccc(Br)cc1)c1ccc(-c2ccc([N+](=O)[O-])cc2)o1`, the Time in the assay with Rattus norvegicus [2] and with Rattus norvegicus [4] was 2.5 h throughout. Besides, the outcome with Rattus norvegicus [8] and with Rattus norvegicus [13] was Active. Besides, in the assay on Rattus norvegicus [14], the “fold change (FC)” value was 6. In the assay with Rattus norvegicus [10], the result was inactive.

In the case of `COc1cc(/C=N/NC(=O)c2ccc(-c3ccc([N+](=O)[O-])cc3)o2)ccc1O`, the outcome with Rattus norvegicus [1] and in the assay with Rattus norvegicus [15] was Active. The outcome in the assay with Rattus norvegicus [3] and with Rattus norvegicus [12] was inactive. In addition, the Time in the assay with Rattus norvegicus [4] and with Rattus norvegicus [5] was 2.5 h throughout.

With `NCC1(CC(=O)O)CCCCC1` [GABAPENTIN], in the assay with Rattus norvegicus [16], the outcome was Active. Moreover, the Time in the assay on Rattus norvegicus [4] turned out to be 1 h; in the assay with Rattus norvegicus [5] it was 2.5 h.

For the compound `C/C(=N\NC(=O)c1ccc(-c2ccc([N+](=O)[O-])cc2)o1)c1ccccc1`, the result in the assay with Rattus norvegicus [1], in the assay on Rattus norvegicus [7] and in the assay on Rattus norvegicus [17] was Active. The Time in the assay on Rattus norvegicus [2], in the assay on Rattus norvegicus [4] and in the assay with Rattus norvegicus [5] was 2.5 h in each case.

Consider `C/C(=N\NC(=O)c1ccc(-c2ccc([N+](=O)[O-])cc2)o1)c1ccc(C)cc1`, for which the result in the assay with Rattus norvegicus [11] and with Rattus norvegicus [12] was inactive. Moreover, the result in the assay on Rattus norvegicus [7] and in the assay on Rattus norvegicus [18] was Active. The Time in the assay on Rattus norvegicus [5] came out at 2.5 h.

`NC(=O)N1c2ccccc2C=Cc2ccccc21` [CARBAMAZEPINE]: the result in the assay with Rattus norvegicus [19] and with Rattus norvegicus [20] was Active. Further, the Time in the assay on Rattus norvegicus [5] amounted to 2.5 h.
